Results published in ChEMBL document CHEMBL4219189, “Designing novel inhibitors against falcipain-2 of Plasmodium falciparum” (Bioorg Med Chem Lett, 2018).
The source made the active and inactive calls. No cut-off for these calls is given here.

Experiments:
Plasmodium falciparum [1] = experiment: Resistance index, ratio of IC50 for chloroquine sensitive Plasmodium falciparum MRC-02 schizont stage infected in human erythrocytes to IC50 for chloroquine resistant Plasmodium falciparum RKL9 schizont stage infected in human erythrocytes
Plasmodium falciparum [2] = experiment: Inhibition of chloroquine resistant Plasmodium falciparum RKL9 schizont stage infected in human erythrocytes assessed as reduction in […] growth after 24 hrs by Giemsa staining based assay; format: cell-based; details: RKL9, 24 h
Plasmodium falciparum [3] = experiment: Inhibition of chloroquine sensitive Plasmodium falciparum MRC-02 schizont stage infected in human erythrocytes assessed as reduction in […] growth after 24 hrs by Giemsa staining based assay; format: cell-based; details: MRC-02, 24 h
Plasmodium berghei [4] = experiment: Antimalarial activity against Plasmodium berghei infected in Swiss albino mouse assessed as suppression of parasitaemia at 25 mg/kg/day, po for 4 consecutive days starting from 4 hrs post infection measured on day 4 post last dose by Giemsa staining based microscopic method relative to control; format: functional
Plasmodium berghei [5] = experiment: Antimalarial activity against Plasmodium berghei infected in Swiss albino mouse assessed as increase in mouse survival at 25 mg/kg/day, po for 4 consecutive days starting from 4 hrs post infection measured on day 28 by Giemsa staining based microscopic method; format: functional, organism-based
Plasmodium berghei [6] = experiment: Antimalarial activity against Plasmodium berghei infected in Swiss albino mouse assessed as increase in mouse survival at 20 mg/kg/day, po for 4 consecutive days starting from 4 hrs post infection measured on day 28 by Giemsa staining based microscopic method; format: functional, organism-based
Plasmodium berghei [7] = experiment: Antimalarial activity against Plasmodium berghei infected in Swiss albino mouse assessed as suppression of parasitaemia at 20 mg/kg/day, po for 4 consecutive days starting from 4 hrs post infection measured on day 4 post last dose by Giemsa staining based microscopic method relative to control; format: functional

Row | Compound | Ratio IC50 (Plasmodium falciparum [1]) | IC50 (Plasmodium falciparum [2]) [µM] | IC50 (Plasmodium falciparum [3]) [µM] | Activity (Plasmodium berghei [4]) [%] | Activity (Plasmodium berghei [5]) | Activity (Plasmodium berghei [6]) | Activity (Plasmodium berghei [7]) [%]
1 | CCN(CC)c1ccc2cc(C3=NN(c4ccccc4)C(c4ccc([N+](=O)[O-])cc4)C3)c(=O)oc2c1 (centres undefined) | 0.5 | 41.6 | 20.9 | – | – | – | –
2 | CCN(CC)c1ccc2cc(C3=NN(c4ccccc4)C(c4ccc(O)cc4)C3)c(=O)oc2c1 (centres undefined) | 0.69 | 25.3 | 17.5 | – | – | – | –
3 | CCN(CC)c1ccc2cc(C3=NN(c4ccccc4)C(c4ccc(F)cc4)C3)c(=O)oc2c1 (centres undefined) | 0.79 | 33.8 | 26.9 | – | – | – | –
4 | CCN(CC)c1ccc2cc(C3=NN(C(=O)c4ccccc4)C(c4ccc(F)cc4)C3)c(=O)oc2c1 (centres undefined) | 2.2 | 1.9 | 4.2 | 100 | Active | – | –
5 | CCN(CC)c1ccc2cc(C3=NN(c4ccccc4)C(c4ccccc4)C3)c(=O)oc2c1 (centres undefined) | – | > 100 | > 100 | – | – | – | –
6 | CCN(CC)c1ccc2cc(C3=NN(c4ccccc4)C(c4ccc(Cl)cc4)C3)c(=O)oc2c1 (centres undefined) | 1.1 | 9.1 | 10.4 | 34 | inactive | – | –
7 | CCN(CC)c1ccc2cc(C3=NN(C(=O)c4ccccc4)C(c4ccc(Cl)cc4)C3)c(=O)oc2c1 (centres undefined) | – | > 100 | > 100 | – | – | – | –
8 | CCN(CC)c1ccc2cc(C3=NN(C(=O)c4ccccc4)C(c4ccccc4)C3)c(=O)oc2c1 (centres undefined) | – | > 100 | > 100 | – | – | – | –
9 | CCN(CC)CCCC(C)Nc1ccnc2cc(Cl)ccc12 (centres undefined) [CHLOROQUINE] | – | – | – | – | – | Active | 100
10 | CCN(CC)c1ccc2cc(C3=NNC(c4ccccc4)C3)c(=O)oc2c1 (centres undefined) | – | > 100 | > 100 | – | – | – | –
11 | CCN(CC)c1ccc2cc(C3=NNC(c4ccc(F)cc4)C3)c(=O)oc2c1 (centres undefined) | 0.76 | 44.5 | 34.2 | – | – | – | –
12 | CCN(CC)c1ccc2cc(C3=NNC(c4ccc([N+](=O)[O-])cc4)C3)c(=O)oc2c1 (centres undefined) | 0.64 | 30.4 | 19.7 | – | – | – | –
13 | CCN(CC)c1ccc2cc(C3=NNC(c4ccc(Cl)cc4)C3)c(=O)oc2c1 (centres undefined) | 0.68 | 27.1 | 18.6 | – | – | – | –
14 | CCN(CC)c1ccc2cc(C3=NN(C(=O)c4ccccc4)C(c4ccc([N+](=O)[O-])cc4)C3)c(=O)oc2c1 (centres undefined) | 1.6 | 2.1 | 3.3 | 62 | inactive | – | –
15 | CCN(CC)c1ccc2cc(C3=NNC(c4ccc(O)cc4)C3)c(=O)oc2c1 (centres undefined) | 0.89 | 29.9 | 26.7 | – | – | – | –
16 | CCN(CC)c1ccc2cc(C3=NN(C(=O)c4ccccc4)C(c4ccc(O)cc4)C3)c(=O)oc2c1 (centres undefined) | 0.53 | 26.7 | 14.3 | – | – | – | –
